Test results: patent publication US20150094474A1, “AGRICULTURAL CHEMICALS” (Redx Pharma Ltd., priority 2012, published 2015)

Tested on: Lolium perenne
Experiment: Herbicidal bioassay, Lolium perenne / rye grass (% necrosis)
Format: in vivo
Method: A laboratory bioassay was conducted to screen ten compounds (Fluazifop (25); Ethyl fluazifop (62); five fluazifop analogues: 27, 28, 63, 64 and 65; mesofulfuron (6); and two mesosulfuron analogues: 8 and 61. for activity against Lolium perenne, barley, peas and Chinese cabbage. Compounds were diluted in DMSO. Controls were performed using both DMSO and water.
Plants were obtained as seeds and were grown to the 2-4 true leaf stage. Plants were grown individually in seed trays. Each plant (in an approximately 3 cm diameter plug) was then detached from the tray for spraying. Environmental conditions were closely monitored and recorded and were within the optimal range of the target species.
The compounds were screened at a range of six concentrations, eg. 0.05%, 0.01%, 0.005%, 0.001%, 0.0005% and 0.0001%. Treatments will be applied directly onto the plants, using a potter tower.
One plant of each type will be sprayed using a potter tower. The 4 different types of weeds will be placed in a 10 cm diameter area underneath the potter sprayer and sprayed simultaneously. The growth of the plants and any Phytotoxicity effects will then be assessed at specified growth intervals, according to EPPO guideline PP1/135. Five replicates will be performed for each treatment, for each species.

## CCOC(=O)C(C)Oc1ccc(Oc2ccc(C(F)(F)F)cn2)cc1 (stereo not drawn) [Fluazifop Ethyl ester (62)]
Dose 0.000001, Day 0
  Sum of % necrosis in Rye grass: C (less than 50% necrosis)
Dose 0.000001, Day 1
  Sum of % necrosis in Rye grass: C (less than 50% necrosis)
Dose 0.000001, Day 3
  Sum of % necrosis in Rye grass: C (less than 50% necrosis)
Dose 0.000001, Day 7
  Sum of % necrosis in Rye grass: C (less than 50% necrosis)
Dose 0.000001, Day 10
  Sum of % necrosis in Rye grass: C (less than 50% necrosis)
Dose 0.000001, Day 14
  Sum of % necrosis in Rye grass: C (less than 50% necrosis)
Dose 0.000001, Day 21
  Sum of % necrosis in Rye grass: C (less than 50% necrosis)
Dose 0.000005, Day 0
  Sum of % necrosis in Rye grass: C (less than 50% necrosis)
Dose 0.000005, Day 1
  Sum of % necrosis in Rye grass: C (less than 50% necrosis)
Dose 0.000005, Day 3
  Sum of % necrosis in Rye grass: C (less than 50% necrosis)
Dose 0.000005, Day 7
  Sum of % necrosis in Rye grass: C (less than 50% necrosis)
Dose 0.000005, Day 10
  Sum of % necrosis in Rye grass: C (less than 50% necrosis)
Dose 0.000005, Day 14
  Sum of % necrosis in Rye grass: C (less than 50% necrosis)
Dose 0.000005, Day 21
  Sum of % necrosis in Rye grass: C (less than 50% necrosis)
Dose 0.00001, Day 0
  Sum of % necrosis in Rye grass: C (less than 50% necrosis)
Dose 0.00001, Day 1
  Sum of % necrosis in Rye grass: C (less than 50% necrosis)
Dose 0.00001, Day 3
  Sum of % necrosis in Rye grass: C (less than 50% necrosis)
Dose 0.00001, Day 7
  Sum of % necrosis in Rye grass: C (less than 50% necrosis)
Dose 0.00001, Day 10
  Sum of % necrosis in Rye grass: C (less than 50% necrosis)
Dose 0.00001, Day 14
  Sum of % necrosis in Rye grass: C (less than 50% necrosis)
Dose 0.00001, Day 21
  Sum of % necrosis in Rye grass: C (less than 50% necrosis)
Dose 0.00005, Day 0
  Sum of % necrosis in Rye grass: C (less than 50% necrosis)
Dose 0.00005, Day 1
  Sum of % necrosis in Rye grass: C (less than 50% necrosis)
Dose 0.00005, Day 3
  Sum of % necrosis in Rye grass: C (less than 50% necrosis)
Dose 0.00005, Day 7
  Sum of % necrosis in Rye grass: C (less than 50% necrosis)
Dose 0.00005, Day 10
  Sum of % necrosis in Rye grass: C (less than 50% necrosis)
Dose 0.00005, Day 14
  Sum of % necrosis in Rye grass: C (less than 50% necrosis)
Dose 0.00005, Day 21
  Sum of % necrosis in Rye grass: B (50%-80% necrosis)
Dose 0.0001, Day 0
  Sum of % necrosis in Rye grass: C (less than 50% necrosis)
Dose 0.0001, Day 1
  Sum of % necrosis in Rye grass: C (less than 50% necrosis)
Dose 0.0001, Day 3
  Sum of % necrosis in Rye grass: C (less than 50% necrosis)
Dose 0.0001, Day 7
  Sum of % necrosis in Rye grass: C (less than 50% necrosis)
Dose 0.0001, Day 10
  Sum of % necrosis in Rye grass: C (less than 50% necrosis)
Dose 0.0001, Day 14
  Sum of % necrosis in Rye grass: A (over 80% necrosis)
Dose 0.0001, Day 21
  Sum of % necrosis in Rye grass: A (over 80% necrosis)
Dose 0.0005, Day 0
  Sum of % necrosis in Rye grass: C (less than 50% necrosis)
Dose 0.0005, Day 1
  Sum of % necrosis in Rye grass: C (less than 50% necrosis)
Dose 0.0005, Day 3
  Sum of % necrosis in Rye grass: C (less than 50% necrosis)
Dose 0.0005, Day 7
  Sum of % necrosis in Rye grass: C (less than 50% necrosis)
Dose 0.0005, Day 10
  Sum of % necrosis in Rye grass: C (less than 50% necrosis)
Dose 0.0005, Day 14
  Sum of % necrosis in Rye grass: C (less than 50% necrosis)
Dose 0.0005, Day 21
  Sum of % necrosis in Rye grass: C (less than 50% necrosis)
